# In publication PMC3206302 (The Journal of General Physiology, 2011):
# Target: T1, TRPV3 (Mus musculus, UniProt Q8K424)
# T1 sequence (Q8K424 1-791): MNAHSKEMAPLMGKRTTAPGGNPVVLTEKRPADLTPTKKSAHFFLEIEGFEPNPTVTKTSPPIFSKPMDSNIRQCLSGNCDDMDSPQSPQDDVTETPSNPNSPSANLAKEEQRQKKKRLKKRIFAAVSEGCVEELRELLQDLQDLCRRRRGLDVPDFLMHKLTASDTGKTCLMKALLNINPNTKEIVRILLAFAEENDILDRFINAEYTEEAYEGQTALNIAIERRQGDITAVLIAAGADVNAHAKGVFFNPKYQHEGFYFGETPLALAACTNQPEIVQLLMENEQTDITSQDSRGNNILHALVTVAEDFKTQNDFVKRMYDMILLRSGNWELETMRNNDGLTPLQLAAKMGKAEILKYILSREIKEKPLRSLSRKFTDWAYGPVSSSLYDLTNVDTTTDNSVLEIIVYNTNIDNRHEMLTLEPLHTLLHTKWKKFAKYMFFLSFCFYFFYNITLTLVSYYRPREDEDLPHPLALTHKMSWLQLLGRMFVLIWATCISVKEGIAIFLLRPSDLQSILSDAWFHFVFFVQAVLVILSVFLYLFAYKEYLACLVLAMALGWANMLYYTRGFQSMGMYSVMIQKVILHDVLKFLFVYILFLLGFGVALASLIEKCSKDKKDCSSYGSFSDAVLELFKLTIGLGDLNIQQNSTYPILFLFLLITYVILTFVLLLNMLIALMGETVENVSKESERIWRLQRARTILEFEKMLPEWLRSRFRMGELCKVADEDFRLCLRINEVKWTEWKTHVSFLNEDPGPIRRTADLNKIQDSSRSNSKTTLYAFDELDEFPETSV
# Assay: patch-clamp, reversible potentiation of 2-APB response in inside-out patches
# Format: cell-based
smiles,measurement,value
CC(C)=C[C@H]1C[C@H](C)[C@]2(CC[C@]3(C)C[C@H]4[C@H](C(=O)C[C@@]4(C)O)/C(C=O)=C\C[C@H]32)O1 [ophiobolin A],"patch-clamp, reversible potentiation of 2-APB response in inside-out patches",some CaM inhibitors such as ophiobolin A and W-7 may directly interfere with the gating of TRPV3
